From patent US6562837B1, “Use of tetrahydroisoquinoline compounds for the treatment of septicemia” (Korea Institute of Science & Technology, priority 1998, dated 2003)
Like-named read-outs stand apart in the source and are kept apart here.

Experiments:
[1] = test system: NO synthesis in macrophages (RAW 264.7 cells); test: Suppression of LPS- and IFN-γ-induced NO synthesis in macrophage (nitrite, Griess reagent); type: cell-based; conditions: 18 hours, control 8, LPS + IFN-γ alone 57
Procedure: In a DMEM medium supplemented with thermally treated 10% fetal calf serum, penicillin (100 U/ml) and streptomycin ([…]), macrophages (RAW 264.7 cells) were cultured to be confluent in a CO2 incubator. After being transferred to a serum-free DMEM medium, the cells were cultured for additional 24 hours and then, further for 18 hours in the presence of LPS (100 ng/ml) and IFN-γ, and either of the compounds of Chemical Formulas 1 and 2 (0, 1, 10, and 100:μM). The amount of the NO synthesized was measured indirectly through the amount of nitrite, an oxidation product of NO. To this end, the nitrite was subjected to color reaction with the Griess reagent (0.1% naphthylethylenediamine dihydrochloride, 1% sulphanilamide, 5% phosphate solution) and its absorbance at 550 nm was measured by a spectrophotometer.

human platelets = test: Inhibitory effect on platelet aggregation in human platelet rich plasma; type: cell-based
Procedure: For experiment, a blood platelet concentrate which was purchased from the Blood Bank of the Seoul National University Hospital, Korea, was measured for the number of platelets with the aid of a platelet analyzer (PLT-4, Texas Instruments), and diluted with phosphate buffered saline (hereinafter referred to as “PBS”) to give platelet rich plasma (hereinafter referred to as “PRP”) which ranged, in platelet number, from 300×10^6 to 400×10^6/ml. After being incubated at 37° C. for 3 min, PRP was added with ADP, collagen or epinephrine to induce platelet aggregation. The reduction in turbidity of PRP was observed and the degree of aggregation was monitored using a platelet aggregometer, such as that manufactured by Chrono-Log Corp. U.S.A., identified as “Model 500VS”.
The inhibitory activities of sample compounds against the platelet aggregation were evaluated as the % inhibition calculated according to the following equation: […]
A: aggregation degree of platelets obtained when adding a platelet aggregation inducer alone;
B: aggregation degree of platelets obtained when adding a combination of a platelet aggregation inducer and a sample.
Obtained using human platelets, the inhibitory effects of the compounds of Chemical Formulas 1 and 2 on platelet aggregation are given, along with the results from the control higenamine, in Table 1, below.

LPS-induced DIC and MOF = test: Indices for bacterial endotoxin (LPS)-induced DIC and MOF in rats; type: in vivo; conditions: 10 mg/kg and 50 mg/kg orally, vs control given LPS (20 mg/kg) only; for number of platelets in blood: FIG. 3; for prothrombin time (PT): FIG. 4; for activated partial thromboplastin time (aPTT): FIG. 5; for fibrinogen level in blood: FIG. 6; for FDP level in blood: FIG. 7; for S-GOT level in blood: FIG. 8; for S-GPT level in blood: FIG. 9; for BUN level in blood: FIG. 10
Procedure: Rats (Sprague-Dawley, 250±50 g) were anesthetized with ketamine (250 mg/kg) by injection (i.m.). 30 min later, LPS (20 mg/kg) was infused into the tail vein of the rats over a 3 hour period. Thereafter, blood was harvested from the artery and measured for platelet number, PT, aPTT, fibrinogen level, FDP level, and the levels of S-GOT, S-GPT and BUN. Test drugs were orally administered once a day for two days. One hour after the final administration of the compounds of interest, the rats were anesthetized.
As an anticoagulant, sodium citrate was used. The number of platelets in the blood was measured by use of a platelet counter. Anticoagulant-treated blood was centrifuged at 1,500×g for 10 min and the plasma was obtained for testing.
In order to obtain a prothrombin time (PT), 100 μl of the plasma was added with 50 μl of a thromboplastin reagent (Sigma, U.S.A.) and a clotting time was measured by use of a fibrometer (Becton Dickinson Co., Canada). Before mixing, the plasma and thromboplastin reagent were pre-incubated at 37° C. for 3 min and 5 min, respectively.
For measurement of the aPTT, 100 μl of the plasma was incubated at 37° C. for 3 min and added with 100 μl of an activated partial thromboplastin time reagent (Sigma U.S.A.) and 100 μl of 0.02 M CaCl2 and a clotting time was measured by use of a fibrometer. Before addition, the reagent was pre-incubated at 37° C. for 1 min while CaCl2 was pre-warmed at 37° C.
To determine the fibrinogen level, first, 20 μl of the plasma was mixed with 180 μl of a buffer and incubated at 37° C. for 2 min. To this solution was added 100 μl of a thrombin reagent (Sigma U.S.A.), followed by measuring a clotting time. Then, the fibrinogen level was determined from a calibration curve obtained with a fibrinogen reference.
The FDP level was determined by use of the Thrombo-Wellcotest kit (Murex Biotech Limit, British). To this end, first, each blood sample (non-citrated) was mixed well with a soybean trypsin inhibitor and Bothrops atrox venom and incubated at 37° C. for 30 min. After centrifugation at 1,500×g for 10 min twice, the supernatant serum was diluted with a glycine saline buffer. 50 μl of the diluted serum was mixed with a drop of a latex suspension on a test slide glass and spread uniformly. The slide was placed in a shaker for 2 min and observed for agglutination. The concentration of FDP was determined semi-quantitatively as follows: with 1:0 dilution (−):0 μg/ml, (+):1 μg/ml, (++):2 μg/ml; with 1:1 dilution, (+):3 μg/ml, (++) :4 μg/ml; with 1:2 dilution (+):5 μg/ml, (++):6 μg/ml, etc.
For the assay of S-GOT, S-GPT and BUN, diagnostic kits (Boehringer Mannheim; AST kit for S-GOT, ALT kit for S-GPT, and urea kit for BUN) were used, together with an automatic biochemical analyzer (Hitachi 747), with the help of Green Cross Reference Lab., Korea.
In detail, after oral administration of higenamine or the compounds of Chemical Formulas 1 and 2, LPS (20 mg/kg) was injected into rats over a 3 hour period to cause DIC and MOF. In order to examine the improvement in the indices for DIC and MOF, these test animals were compared with a control which was provided with LPS only.

[2] = Toxicity experiment, 50% lethal dose (LD50); conditions: in vivo, ip; intraperitoneally injected
[3] = Homo sapiens, read-out: IC50 (M), ADP-induced platelet aggregation
[4] = human PRP, inducer collagen 2-4 × 10^−6 g/ml, read-out: IC50 (M), collagen-induced platelet aggregation
[5] = human PRP, inducer epinephrine 2 × 10^−6 M, read-out: IC50 (M), epinephrine-induced platelet aggregation

Oc1cc2c(cc1O)C(Cc1cccc3ccccc13)NCC2 (stereo not drawn) [Compound 1, 1-α-naphthylmethyl-6,7-dihydroxy-1,2,3,4-tetrahydroisoquinoline]
Concentration of Nitrite ([1]; compound 1 μM + LPS + IFN-γ): 30 ± 2.9 µM
Concentration of Nitrite ([1]; compound 10 μM + LPS + IFN-γ): 25 ± 3.4 µM
Concentration of Nitrite ([1]; compound 100 μM + LPS + IFN-γ): 9 ± 3.0 µM
IC50 (human platelets; [3]): 0.00073 M
IC50 (human platelets; [4]): 9.2e-05 M
IC50 (human platelets; [5]): 3.4e-06 M
number of platelets in blood (LPS-induced DIC and MOF): increased
prothrombin time (PT) (LPS-induced DIC and MOF): shortened
activated partial thromboplastin time (aPTT) (LPS-induced DIC and MOF): shortened
fibrinogen level in blood (LPS-induced DIC and MOF): increased
FDP level in blood (LPS-induced DIC and MOF): decreased
S-GOT level in blood (LPS-induced DIC and MOF): reduction
S-GPT level in blood (LPS-induced DIC and MOF): reduction
BUN level in blood (LPS-induced DIC and MOF): reduction
LD50 [2]: 290 mg/kg

Oc1ccc(CC2NCCc3cc(O)c(O)cc32)cc1 (centres unmarked) [Higenamine, reference compound]
IC50 (human platelets; human PRP, inducer ADP 1 × 10^−3 M, read-out: IC50 (M), ADP-induced platelet aggregation): > 0.001 M
IC50 (human platelets; [4]): 7e-05 M
IC50 (human platelets; [5]): 1.9e-05 M
number of platelets in blood (LPS-induced DIC and MOF): increased
prothrombin time (PT) (LPS-induced DIC and MOF): shortened
activated partial thromboplastin time (aPTT) (LPS-induced DIC and MOF): shortened
fibrinogen level in blood (LPS-induced DIC and MOF): increased
FDP level in blood (LPS-induced DIC and MOF): decreased
S-GOT level in blood (LPS-induced DIC and MOF): reduction
S-GPT level in blood (LPS-induced DIC and MOF): reduction
BUN level in blood (LPS-induced DIC and MOF): reduction

Oc1cc2c(cc1O)C(Cc1ccc3ccccc3c1)NCC2 (stereo not drawn) [Compound 2, 1-β-naphthylmethyl-6,7-dihydroxy-1,2,3,4-tetrahydroisoquinoline]
Concentration of Nitrite ([1]; compound 1 μM + LPS + IFN-γ): 34 ± 3.1 µM
Concentration of Nitrite ([1]; compound 10 μM + LPS + IFN-γ): 22 ± 2.8 µM
Concentration of Nitrite ([1]; compound 100 μM + LPS + IFN-γ): 11 ± 2.0 µM
IC50 (human platelets; [3]): 0.00086 M
IC50 (human platelets; [4]): 9.6e-06 M
IC50 (human platelets; [5]): 6e-06 M
number of platelets in blood (LPS-induced DIC and MOF): increased
prothrombin time (PT) (LPS-induced DIC and MOF): shortened
activated partial thromboplastin time (aPTT) (LPS-induced DIC and MOF): shortened
fibrinogen level in blood (LPS-induced DIC and MOF): increased
FDP level in blood (LPS-induced DIC and MOF): decreased
S-GOT level in blood (LPS-induced DIC and MOF): reduction
S-GPT level in blood (LPS-induced DIC and MOF): reduction
BUN level in blood (LPS-induced DIC and MOF): reduction
LD50 [2]: 439 mg/kg
